≈ marks a conversion by molar mass, not a printed value.
What was measured:
[1] = Lipophilicity, logD of the compound; type: physicochemical; conditions: octanol/water
[2] = biological target: T1, Diacylglycerol O-acyltransferase 1 (Homo sapiens, UniProt O75907); assay: Inhibition of human DGAT1
T1 sequence (O75907 whole entry): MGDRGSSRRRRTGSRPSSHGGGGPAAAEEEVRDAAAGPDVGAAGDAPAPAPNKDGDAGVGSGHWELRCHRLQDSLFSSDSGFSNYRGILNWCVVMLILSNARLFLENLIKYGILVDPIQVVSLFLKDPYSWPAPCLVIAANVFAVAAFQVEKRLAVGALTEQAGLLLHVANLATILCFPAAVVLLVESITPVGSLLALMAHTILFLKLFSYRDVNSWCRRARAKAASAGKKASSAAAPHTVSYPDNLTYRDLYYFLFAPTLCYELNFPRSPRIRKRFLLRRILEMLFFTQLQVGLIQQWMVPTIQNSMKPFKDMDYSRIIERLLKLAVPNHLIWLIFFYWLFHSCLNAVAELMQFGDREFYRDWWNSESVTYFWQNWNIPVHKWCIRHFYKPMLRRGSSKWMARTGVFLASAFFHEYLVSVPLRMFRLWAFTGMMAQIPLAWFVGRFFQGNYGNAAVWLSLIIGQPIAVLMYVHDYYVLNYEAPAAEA

[3] = biological target: T2, Sterol O-acyltransferase 1 (Homo sapiens, UniProt P35610); assay: Inhibition of human ACAT1
T2 sequence (P35610 whole entry): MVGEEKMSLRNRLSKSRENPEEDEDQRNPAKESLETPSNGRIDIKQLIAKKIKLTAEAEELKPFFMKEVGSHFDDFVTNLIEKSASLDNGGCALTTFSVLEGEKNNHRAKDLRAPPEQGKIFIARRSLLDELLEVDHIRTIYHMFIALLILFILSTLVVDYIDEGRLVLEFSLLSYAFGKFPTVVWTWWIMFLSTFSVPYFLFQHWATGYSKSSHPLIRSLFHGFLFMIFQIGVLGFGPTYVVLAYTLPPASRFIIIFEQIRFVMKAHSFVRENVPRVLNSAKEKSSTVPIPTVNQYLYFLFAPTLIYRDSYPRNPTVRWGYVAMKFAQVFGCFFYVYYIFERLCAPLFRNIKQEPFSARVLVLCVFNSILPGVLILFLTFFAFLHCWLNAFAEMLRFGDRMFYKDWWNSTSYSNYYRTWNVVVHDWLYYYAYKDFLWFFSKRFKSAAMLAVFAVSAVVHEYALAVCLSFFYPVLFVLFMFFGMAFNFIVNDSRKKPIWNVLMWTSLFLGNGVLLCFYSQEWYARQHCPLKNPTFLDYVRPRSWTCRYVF

[4] = Thermodynamic solubility of the compound after 24 hrs at pH 7.4; type: physicochemical; conditions: buffer, read-out: Therm_solubility
[5] = system: Hepatocyte; assay: Intrinsic clearance in human hepatocytes; type: ADME, cell-based
[6] = Apparent permeability in MDCK cells assessed as permeability from apical to basolateral side; type: ADME, cell-based, Canis lupus familiaris; conditions: dog
[7] = Clearance in rat; type: ADME, organism-based; conditions: in vivo
[8] = species: Rattus norvegicus; assay: Unbound clearance in rat; type: ADME, organism-based; conditions: in vivo
[9] = Oral bioavailability in rat; type: ADME, organism-based; conditions: in vivo
[10] = Clearance in dog; type: ADME, organism-based, Canis lupus familiaris; conditions: in vivo
[11] = species: Canis familiaris; assay: Unbound clearance in dog; type: ADME, organism-based, Canis lupus familiaris; conditions: in vivo
[12] = Oral bioavailability in dog; type: ADME, organism-based, Canis lupus familiaris; conditions: in vivo

Row | logD [1] | IC50 [2] | IC50 [3] | solubility thermodynamic at 24 h [4] | Intrinsic clearance (CLint) [5] | Papp A→B [6] | clearance [7] | CL free [8] | bioavailability [9] | clearance [10] | CL free [11] | bioavailability [12] | Structure (SMILES)
1 | 1.2 | 5 nM | 1800 nM | 5 µM (≈ 2.2 µg/mL) | – | – | – | – | – | – | – | – | O=C(Nc1ccc(O[C@H]2CC[C@@H](C(=O)O)CC2)cc1)c1nnc(Nc2ccc(F)cc2)o1
2 | 1.9 | 5 nM | 6500 nM | 49 µM (≈ 22.5 µg/mL) | < 2 µL/min/mg | 2 ×10⁻⁶ cm/s | 7.4 mL/min/kg | 740 mL/min/kg | 33% | 4.7 mL/min/kg | 130 mL/min/kg | 60% | O=C(Nc1ccc(O[C@H]2CC[C@@H](C(=O)O)CC2)nc1)c1nnc(Nc2ccc(F)c(F)c2)o1
3 | 1.9 | – | – | 27 µM (≈ 12.9 µg/mL) | – | – | – | – | – | – | – | – | O=C(Nc1ccc(O[C@H]2CC[C@H](C(=O)O)CC2)cc1)c1nnc(Nc2cc(F)c(F)cc2F)o1
4 | 1.8 | 4 nM | 1100 nM | 2200 µM (≈ 1090 µg/mL) | < 2 µL/min/mg | 15 ×10⁻⁶ cm/s | 1.8 mL/min/kg | 300 mL/min/kg | 100% | 4.6 mL/min/kg | 200 mL/min/kg | 61% | O=C(Nc1ccc(O[C@H]2CC[C@@H](C(=O)O)CC2)nc1F)c1nnc(Nc2cc(F)c(F)cc2F)o1
5 | 1.4 | 5 nM | 5600 nM | 23 µM (≈ 10.4 µg/mL) | – | 1.1 ×10⁻⁶ cm/s | – | – | – | – | – | – | O=C(O)c1ccc(Oc2ccc(NC(=O)c3nnc(Nc4ccc(F)c(F)c4)o3)cn2)cc1
6 | 1.6 | 6 nM | 1300 nM | 240 µM (≈ 119 µg/mL) | – | – | – | – | – | – | – | – | O=C(Nc1cnc(O[C@H]2CC[C@@H](C(=O)O)CC2)cc1F)c1nnc(Nc2cc(F)c(F)cc2F)o1
7 | 1.4 | 18 nM | 14300 nM | – | – | – | – | – | – | – | – | – | N#Cc1ccc(Nc2nnc(C(=O)Nc3ccc(O[C@H]4CC[C@@H](C(=O)O)CC4)cc3)o2)cc1
8 | 1.8 | 15 nM | 6500 nM | 13 µM (≈ 6.43 µg/mL) | – | – | – | – | – | – | – | – | O=C(Nc1ccc(O[C@H]2CC[C@H](C(=O)O)CC2)cc1F)c1nnc(Nc2cc(F)c(F)cc2F)o1

From ChEMBL document CHEMBL3132759, “Design and synthesis of a novel series of cyclohexyloxy-pyridyl derivatives as inhibitors of diacylglycerol acyl transferase 1” (Medchemcomm, 2013)
